# Assay results taken from PMC4941420, “A Rational Approach for the Identification of Non-Hydroxamate HDAC6-Selective Inhibitors” (Scientific Reports, 2016).
# How the values were obtained:
# HDAC6 = biological target: T1, HDAC6 (Homo sapiens, UniProt Q9UBN7); assay: In vitro enzymatic assay HDAC6 (Fluor de Lys); type: biochemical; settings: for HDAC6 % of inhibition at 100 µM / inhibition at 100 µM: mean ± SD (n=3); for inhibition at 100 µM: read-out: HDAC6 % of inhibition at 100 µM; for IC50: average of at least 2 independent experiments in duplicates ± SEM
# T1 construct: purchased Sigma Aldrich or Reaction Biology Corporation
# T1 sequence (Q9UBN7 1-1215): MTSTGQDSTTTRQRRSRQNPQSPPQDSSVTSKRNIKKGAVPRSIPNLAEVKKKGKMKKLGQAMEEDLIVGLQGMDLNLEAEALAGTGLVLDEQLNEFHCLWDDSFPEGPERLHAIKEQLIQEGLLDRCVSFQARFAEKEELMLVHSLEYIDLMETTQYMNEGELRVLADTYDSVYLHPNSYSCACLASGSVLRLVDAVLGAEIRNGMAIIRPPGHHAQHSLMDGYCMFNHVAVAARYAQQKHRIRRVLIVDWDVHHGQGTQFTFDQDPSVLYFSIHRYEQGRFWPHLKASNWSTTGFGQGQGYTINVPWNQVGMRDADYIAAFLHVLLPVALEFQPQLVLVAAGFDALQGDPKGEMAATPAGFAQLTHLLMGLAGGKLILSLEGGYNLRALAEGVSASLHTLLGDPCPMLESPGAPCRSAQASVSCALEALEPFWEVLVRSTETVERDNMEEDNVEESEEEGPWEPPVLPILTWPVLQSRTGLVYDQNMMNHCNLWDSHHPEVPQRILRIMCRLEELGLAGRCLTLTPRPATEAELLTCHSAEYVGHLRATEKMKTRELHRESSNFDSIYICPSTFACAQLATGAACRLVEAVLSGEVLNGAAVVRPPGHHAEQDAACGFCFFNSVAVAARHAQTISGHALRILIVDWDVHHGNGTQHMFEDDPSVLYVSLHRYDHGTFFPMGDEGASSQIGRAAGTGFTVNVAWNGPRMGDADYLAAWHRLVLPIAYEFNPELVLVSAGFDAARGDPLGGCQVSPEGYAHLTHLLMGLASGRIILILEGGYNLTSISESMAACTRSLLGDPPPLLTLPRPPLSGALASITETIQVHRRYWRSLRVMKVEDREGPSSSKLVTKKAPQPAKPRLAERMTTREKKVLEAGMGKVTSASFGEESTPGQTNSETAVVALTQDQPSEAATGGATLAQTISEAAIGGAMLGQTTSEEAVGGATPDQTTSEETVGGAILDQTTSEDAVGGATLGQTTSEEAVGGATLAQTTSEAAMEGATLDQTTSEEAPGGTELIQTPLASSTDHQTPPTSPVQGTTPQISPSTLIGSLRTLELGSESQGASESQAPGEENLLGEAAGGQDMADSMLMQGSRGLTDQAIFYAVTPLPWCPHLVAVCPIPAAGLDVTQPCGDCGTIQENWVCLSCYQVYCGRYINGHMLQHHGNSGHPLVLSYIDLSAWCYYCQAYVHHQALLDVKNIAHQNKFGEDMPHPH
# [1] = tested on: class I HDACs (HeLa nuclear extracts); assay: HDAC activity of HeLa nuclear extracts (Fluor de Lys); type: biochemical, human
# HDAC2 = biological target: T2, HDAC2 (Homo sapiens, UniProt Q92769); assay: In vitro enzymatic assay HDAC2 (Fluor de Lys); type: biochemical; settings: average of at least 2 independent experiments in duplicates ± SEM
# T2 construct: purchased Sigma Aldrich or Reaction Biology Corporation
# T2 sequence (Q92769 whole entry): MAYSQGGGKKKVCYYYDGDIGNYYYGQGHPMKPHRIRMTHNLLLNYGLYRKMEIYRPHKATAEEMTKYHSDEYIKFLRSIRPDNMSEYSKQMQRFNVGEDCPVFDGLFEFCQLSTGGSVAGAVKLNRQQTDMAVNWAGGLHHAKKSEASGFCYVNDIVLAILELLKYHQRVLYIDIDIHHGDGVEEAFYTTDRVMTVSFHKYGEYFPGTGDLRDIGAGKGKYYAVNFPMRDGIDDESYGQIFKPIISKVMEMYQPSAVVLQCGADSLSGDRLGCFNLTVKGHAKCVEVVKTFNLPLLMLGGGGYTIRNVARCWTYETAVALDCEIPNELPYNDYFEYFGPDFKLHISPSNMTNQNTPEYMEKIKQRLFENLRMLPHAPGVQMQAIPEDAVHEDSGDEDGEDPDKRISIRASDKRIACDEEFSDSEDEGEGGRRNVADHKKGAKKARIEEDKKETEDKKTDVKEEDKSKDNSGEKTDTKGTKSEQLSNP
# HDAC8 = biological target: T3, HDAC8 (Homo sapiens, UniProt Q9BY41); assay: In vitro enzymatic assay HDAC8 (Fluor de Lys); type: biochemical; settings: average of at least 2 independent experiments in duplicates ± SEM
# T3 construct: purchased Sigma Aldrich or Reaction Biology Corporation
# T3 sequence (Q9BY41 1-377): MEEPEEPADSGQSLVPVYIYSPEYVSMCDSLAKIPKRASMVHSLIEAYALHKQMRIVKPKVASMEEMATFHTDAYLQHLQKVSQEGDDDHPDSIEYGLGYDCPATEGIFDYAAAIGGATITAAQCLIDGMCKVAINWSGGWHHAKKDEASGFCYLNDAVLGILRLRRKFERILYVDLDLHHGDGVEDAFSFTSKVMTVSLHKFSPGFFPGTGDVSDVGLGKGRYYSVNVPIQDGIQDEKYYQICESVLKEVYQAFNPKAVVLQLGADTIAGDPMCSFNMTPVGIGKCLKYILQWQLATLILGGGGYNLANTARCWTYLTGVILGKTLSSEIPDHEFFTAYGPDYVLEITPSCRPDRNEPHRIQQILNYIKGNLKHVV
# HDAC4 = biological target: T4, HDAC4 (Homo sapiens, UniProt P56524); assay: In vitro enzymatic assay HDAC4 (Fluor de Lys); type: biochemical; settings: average of at least 2 independent experiments in duplicates ± SEM
# T4 construct: purchased Sigma Aldrich or Reaction Biology Corporation
# T4 sequence (P56524 whole entry): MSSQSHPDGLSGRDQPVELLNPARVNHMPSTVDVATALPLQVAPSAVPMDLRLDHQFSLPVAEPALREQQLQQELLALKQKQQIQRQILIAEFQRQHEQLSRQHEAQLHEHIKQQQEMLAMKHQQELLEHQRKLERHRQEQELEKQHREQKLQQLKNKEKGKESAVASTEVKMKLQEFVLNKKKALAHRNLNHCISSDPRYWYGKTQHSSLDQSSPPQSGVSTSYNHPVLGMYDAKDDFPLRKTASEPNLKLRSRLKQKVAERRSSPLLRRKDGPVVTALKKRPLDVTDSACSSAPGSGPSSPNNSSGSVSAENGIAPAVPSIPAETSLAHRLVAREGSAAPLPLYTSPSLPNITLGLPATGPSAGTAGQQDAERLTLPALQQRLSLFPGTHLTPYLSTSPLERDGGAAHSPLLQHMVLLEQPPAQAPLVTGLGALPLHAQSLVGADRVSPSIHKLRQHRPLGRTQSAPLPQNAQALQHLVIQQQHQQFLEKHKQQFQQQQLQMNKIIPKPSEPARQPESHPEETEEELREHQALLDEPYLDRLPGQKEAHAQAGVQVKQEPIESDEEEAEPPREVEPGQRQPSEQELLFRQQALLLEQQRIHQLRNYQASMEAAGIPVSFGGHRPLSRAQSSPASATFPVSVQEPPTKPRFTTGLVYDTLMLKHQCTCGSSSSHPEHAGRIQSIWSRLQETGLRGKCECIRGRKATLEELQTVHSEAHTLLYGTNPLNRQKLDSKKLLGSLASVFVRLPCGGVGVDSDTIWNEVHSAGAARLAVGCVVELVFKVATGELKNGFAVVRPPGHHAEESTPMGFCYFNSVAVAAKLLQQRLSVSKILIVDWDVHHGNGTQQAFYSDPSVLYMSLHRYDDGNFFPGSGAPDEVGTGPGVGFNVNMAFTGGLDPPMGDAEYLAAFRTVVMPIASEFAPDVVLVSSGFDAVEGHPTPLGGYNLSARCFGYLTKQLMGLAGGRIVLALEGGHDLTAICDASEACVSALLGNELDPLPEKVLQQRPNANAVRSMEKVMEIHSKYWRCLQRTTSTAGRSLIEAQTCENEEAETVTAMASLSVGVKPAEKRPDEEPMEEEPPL
# [2] = 100 μM, average of at least 3 independent experiments in duplicates (Table 1)
compound,measurement,setting,value
CC(C)Oc1cccc(C(=O)NN)c1 [AK-10],HDAC6 % of inhibition at 100 µM,HDAC6,13.9 ± 17.9%
COc1ccccc1OCc1ccc(C(=O)NN)o1 [AK-15],HDAC6 % of inhibition at 100 µM,HDAC6,42.1 ± 23.0%
same,HeLa % of inhibition at 100 μM,"[1]; 100 µM, mean ± SD (n=3) (Table S6)",-2.6 ± 3.0%
NNC(=O)c1cc2nc(-c3cccs3)cc(C(F)(F)F)n2n1 [AK-7],HDAC6 % of inhibition at 100 µM,HDAC6,31.1 ± 0.5% Self-fluorescence
CC(C)C12CC3CC(CC(C(=O)NN)(C3)C1)C2 [AF-1],HDAC6 % of inhibition at 100 µM,HDAC6,5.2 ± 1.5%
Cc1ccccc1COc1ccc(/C=N/NC(N)=S)cc1 [AH-2],HDAC6 % of inhibition at 100 µM,HDAC6,12.1 ± 1.6%
N/N=C1\CCCc2c1[nH]c1ccc(C(=O)NN)cc21 [AH-1],HDAC6 % of inhibition at 100 µM,HDAC6,26.9 ± 6.1%
NNC(=O)c1ccc(COc2ccccc2Br)cc1 [AK-18],inhibition at 100 µM,HDAC6,69 ± 2.4%
same,IC50,HDAC6,16.4 ± 1.1 µM
same,IC50,HDAC2,> 1000 µM
same,HeLa % of inhibition at 100 μM,[1]; [2],0.4 ± 3.9%
same,IC50,HDAC8,> 300 µM
same,IC50,HDAC4,> 300 µM
CCOc1cc(/C=N/O)cc(Cl)c1OC [AK-9],HDAC6 % of inhibition at 100 µM,HDAC6,8.0 ± 4.6%
COc1ccccc1OCc1ccc(C(=O)NN)cc1 [AK-5],inhibition at 100 µM,HDAC6,64.4 ± 1.3%
same,IC50,HDAC6,45.6 ± 1.5 µM
same,IC50,HDAC2,> 200 µM
same,HeLa % of inhibition at 100 μM,[1]; [2],5.8 ± 1.3%
same,IC50,HDAC8,130 ± 9 µM
same,IC50,HDAC4,> 300 µM
NNC(=O)c1ccc(COc2ccc(Cl)cc2Cl)o1 [AK-25],HDAC6 % of inhibition at 100 µM,HDAC6,29.1 ± 10.3%
NNC(=O)CC12CC3CC(C1)CC(n1ncnn1)(C3)C2 [AK-13],HDAC6 % of inhibition at 100 µM,HDAC6,23.7 ± 9.3%
CC(C)(C)CC(C)(C)c1ccc(OCC(=O)NN)c([N+](=O)[O-])c1 [AG-4],HDAC6 % of inhibition at 100 µM,HDAC6,5.5 ± 2.9%
NNC(=O)c1cc(Br)cs1 [AK-20],HDAC6 % of inhibition at 100 µM,HDAC6,22.3 ± 8.7%
NNC(=O)c1ccc(Cn2cc(Cl)cn2)cc1 [AK-24],inhibition at 100 µM,HDAC6,63.1 ± 12.2%
same,IC50,HDAC6,74.9 ± 5.2 µM
same,IC50,HDAC2,> 200 µM
same,HeLa % of inhibition at 100 μM,[1]; [2],33.3 ± 5.4%
same,IC50,HDAC8,86.9 ± 0.7 µM
same,IC50,HDAC4,> 300 µM
O=C(CSc1nc2cc(Cl)c3cccnc3c2o1)c1ccc(O)c(O)c1 [AO-1],inhibition at 100 µM,HDAC6,66.1 ± 6.9%
same,selectivity index (SI) with respect to HDAC2,HDAC6; HDAC6 versus HDAC2,> 50
same,IC50,HDAC6,16.9 ± 4.9 µM
same,IC50,HDAC2,> 1000 µM
same,HeLa % of inhibition at 100 μM,[1]; [2],20.7 ± 4.0%
same,IC50,HDAC8,35.1 ± 1.1 µM
same,IC50,HDAC4,73.5 ± 6 µM
NNC(=O)c1cccc(COc2cc(Cl)ccc2Cl)c1 [AK-6],HDAC6 % of inhibition at 100 µM,HDAC6,15.3 ± 0.5%
Cc1nnn(C23CC4CC(CC(C(=O)NN)(C4)C2)C3)n1 [AK-19],HDAC6 % of inhibition at 100 µM,HDAC6,18.1 ± 4.0%
Cc1cccc(Cn2nnc3c(=O)n(CC(=O)Nc4ccc(S(N)(=O)=O)cc4)cnc32)c1 [AO-2],HDAC6 % of inhibition at 100 µM,HDAC6,-3.3 ± 5.4%
NNC(=O)c1cccc(COc2ccccc2Br)c1 [AK-22],HDAC6 % of inhibition at 100 µM,HDAC6,25.4 ± 9.7%
CCOc1ccc(OCc2cccc(C(=O)NN)c2)cc1 [AK-17],HDAC6 % of inhibition at 100 µM,HDAC6,35.5 ± 10.5%
